Measured values taken from US4200578A, “Thiazole derivatives” (Bristol-Myers Company, priority 1978, dated 1980).
Read-outs that look alike come from different tables or passages of the source.

What was measured:
gastric acid output = assay: Gastric antisecretory activity in the two hour pylorus ligated (Shay) rat; format: in vivo, rat (male Long Evans); details: for ED50: Rattus norvegicus, 2 h; for ED50 / Percent Inhibition Acid Output / Potency Ratio: ip; for potency as inhibitor of gastric acid secretion compared with cimetidine: rats (in vivo); for Potency Ratio: relative to cimetidine (1.0)
Description: Determination of Gastric Antisecretory Activity in the Two Hour Pylorus Ligated (Shay) Rat
The pyloric ligation procedure in the rat was designed by Shay et al., Gastroenterology, 5, 53 (1945) for the study of perforating gastric ulcers; however, as the method became known, it was also employed as a means of studing rat gastric secretion, Shay et al., Gastroenterology, 26, 906 (1954), Brodie, D. A., Am. J. Dig. Dis., 11, 231 (1966). A modification of this procedure is presently used to evaluate compounds for gastric antisecretory activity.
Male Long Evans rats, 280-300 gm., are used. The animals are placed in individual cages and fasted for 24 hours with free access to water. Under ether anesthesia, the stomach is reached through a midline incision, and a cotton-thread ligature is placed around the pylorus. After wound closure, ether administration is stopped and either cimetidine, BL-6040, BL-6044 or vehicle is administered intraperitoneally in a volume of […]. All compounds are solubilized with one equivalent of HCl and brought to the proper volume with water. The animals are returned to their cages from which the water bottles have been removed and two hours later are sacrificed with ether. The stomach is removed and the two hour gastric collection is drained into a graduated test tube for volume determination. Titratable acidity is measured by titrating a one ml. sample to pH 7.0 with 0.02 NaOH, using an Autoburet and electrometric pH meter (Radiometer). Titratable acid output is calculated in microequivalents by mutiplying the volume in milliliters by the acid concentration in milliequivalents per liter. The percent inhibition of acid output is calculated as follows [formula]

[1] = biological target: T1, histamine H2-receptor (isolated guinea pig right atria) (Cavia porcellus, UniProt P47747); assay: Histamine H2-receptor antagonism, isolated guinea pig right atria assay; details: for Histamine ED50 with 95% confidence limits, after test compound: ED50 of histamine in presence of test compound 3 × 10^-5 M, 30 minute incubation, N = 8 (cimetidine), 2 (BL-6040, BL-6044); for potency as histamine H2-receptor antagonist compared with cimetidine: isolated guinea pig atria (in vitro); for Concentration-Response Curve Displacement Factor: test compound 3 × 10^-5 M
T1 construct: The spontaneously beating right atrium was dissected free from other tissues; from tissue; host or cells: spontaneously beating right atrium of male Hartley strain guinea pigs
T1 sequence (P47747 whole entry): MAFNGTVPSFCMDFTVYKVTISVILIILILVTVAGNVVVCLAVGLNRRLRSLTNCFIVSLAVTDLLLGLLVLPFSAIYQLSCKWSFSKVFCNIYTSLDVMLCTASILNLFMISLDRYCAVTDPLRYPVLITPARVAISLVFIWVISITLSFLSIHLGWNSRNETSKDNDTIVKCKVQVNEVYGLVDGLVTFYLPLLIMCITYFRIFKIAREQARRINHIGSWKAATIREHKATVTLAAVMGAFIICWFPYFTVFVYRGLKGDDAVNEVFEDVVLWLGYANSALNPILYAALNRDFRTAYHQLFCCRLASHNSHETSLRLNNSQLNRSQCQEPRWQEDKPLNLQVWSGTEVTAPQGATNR
Experimental: The present comparative studies were carried out using a modification of the procedure reported by Reinhardt et al., Agents and Actions, 4, 217 (1974).
Male Hartley strain guinea pigs (350-450 gm.) were sacrificed by a blow on the head. The heart was excised and placed in a Petri dish of oxygenated (95% O2, 5% CO2) modified Krebs solution (g./liter: NaCl 6.6, KCl 0.35, MgSO4.7 H2 O 0.295, KH2 PO4 0.162, CaCl2 0.238, NaHCO3 2.1 and dextrose 2.09). The spontaneously beating right atrium was dissected free from other tissues and a silk thread (4-0) attached to each end. The atrium was suspended in a 20 ml. muscle chamber containing oxygenated modified Krebs solution maintained at 32° C. Atrial contractions were recorded isometrically by means of a Grass FT 0.03 force displacement transducer and recordings of contractile force and rate were made with Beckman RP Dynograph.
A resting tension of 1 g. was applied to the atrium and it was allowed to equilibrate for 1 hour.
Concentration-response curve displacement factors were calculated as follows: [formula] The factors obtained for BL-6040 and BL-6044 were then expressed as ratios of the factor obtained for cimetidine. [formula]

[2] = cited from earlier work
[3] = in vivo; cited from earlier work
histamine H2-receptor = details: cited from earlier work
peptic ulcer disease = details: clinical evaluation; cited from earlier work
gastric secretion = details: animals and man; cited from earlier work
[4] = inhibition of gastric acid output, two hours, read-out: ED50
[5] = inhibition of gastric acid output

SMILES	ED50 (gastric acid output; [4]) [µmol/kg]	Percent Inhibition Acid Output (gastric acid output; 5 μMole/kg, two hours) [%]	Percent Inhibition Acid Output (gastric acid output; 10 μMole/kg, two hours) [%]	Percent Inhibition Acid Output (gastric acid output; 20 μMole/kg, two hours) [%]	potency as inhibitor of gastric acid secretion compared with cimetidine (gastric acid output)	Potency Ratio (gastric acid output; [5])	Histamine ED50 with 95% confidence limits, after test compound [1] [µg/mL]	potency as histamine H2-receptor antagonist compared with cimetidine [1]	Concentration-Response Curve Displacement Factor [1]	oral activity ([2]; man)	toxicity (agranulocytosis) [3]	H2-receptor antagonism (histamine H2-receptor)	efficacy in the treatment of peptic ulcer disease (peptic ulcer disease)	half-life ([2]; in vivo)	ED50 (gastric acid output) [µmol/kg]	oral absorption ([2]; in vivo, po)	inhibition of gastric secretion (gastric secretion)
C#CCNC(=C[N+](=O)[O-])NCCSCc1nccs1 [BL-6040, 1-Nitro-2-(2-propynylamino)-2-{2-[(thiazol-2-yl)methylthio]ethylamino}ethylene]	4.11	53	69	80	more potent than cimetidine	2.93	20.79	more potent than cimetidine	46.20								
C/N=C(\S)NCCSCc1[nH]cnc1C [Metiamide]										orally active in man	toxicity (agranulocytosis)	more potent than burimamide					
C#CCNC(=NCCSCc1nccs1)NC#N [BL-6044, N-Cyano-N'-(2-propyn-1-yl)-N"-{2-[(thiazol-2-yl)methylthio]ethyl}guanidine]	5.73	52	58	73	more potent than cimetidine	2.11	14.25	more potent than cimetidine	43.18								
CN/C(=N/CCSCc1nc[nH]c1C)NC#N [Cimetidine, reference compound]		26	45	76			4.80		25.26		without producing agranulocytosis	as effective an H2 antagonist as metiamide	effective therapeutic agent in the treatment of peptic ulcer disease	relatively short	12.1		
CNC(=S)NCCCCc1cnc[nH]1 [Burimamide]												a competitive antagonist of these receptors				poor	inhibits gastric secretion in animals and man
